Columns and labels:
Assay type in all cases: biochemical
[1] = molecular target: T1, alkaline phosphatase from bovine intestine (Bos taurus, UniProt P19111); experiment: AP fluorometric assay; conditions: for Hill coefficient / kcat / Km / Vmax: hydrolysis of DiFMUP by AP; for Km / Vmax / IC50 / apparent AP Vmax: ± 95% confidence interval; for IC50: 60 min; for apparent AP Vmax: substrate DiFMUP
Target sequence in this assay (P19111 20-506 limits assumed): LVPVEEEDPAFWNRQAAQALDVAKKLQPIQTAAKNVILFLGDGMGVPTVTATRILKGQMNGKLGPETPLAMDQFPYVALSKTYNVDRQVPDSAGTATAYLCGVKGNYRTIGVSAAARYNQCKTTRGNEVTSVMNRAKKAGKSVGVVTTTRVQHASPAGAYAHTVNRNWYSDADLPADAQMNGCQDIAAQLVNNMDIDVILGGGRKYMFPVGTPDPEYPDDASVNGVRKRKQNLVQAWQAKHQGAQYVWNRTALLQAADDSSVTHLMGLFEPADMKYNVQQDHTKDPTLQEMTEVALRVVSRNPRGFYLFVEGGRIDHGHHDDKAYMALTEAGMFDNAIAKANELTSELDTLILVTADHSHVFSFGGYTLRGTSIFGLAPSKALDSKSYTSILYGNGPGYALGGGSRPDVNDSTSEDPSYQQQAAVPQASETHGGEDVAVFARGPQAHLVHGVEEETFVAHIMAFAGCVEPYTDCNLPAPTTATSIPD

[2] = system: alkaline phosphatase from bovine intestine; experiment: Reversibility test by rapid dilution of the enzyme-inhibitor complex
[3] = molecular target: T1, alkaline phosphatase from bovine intestine; experiment: AP colorimetric assay; conditions: detergent at two concentrations above its critical micelle concentration
Target sequence in this assay (P19111 20-533): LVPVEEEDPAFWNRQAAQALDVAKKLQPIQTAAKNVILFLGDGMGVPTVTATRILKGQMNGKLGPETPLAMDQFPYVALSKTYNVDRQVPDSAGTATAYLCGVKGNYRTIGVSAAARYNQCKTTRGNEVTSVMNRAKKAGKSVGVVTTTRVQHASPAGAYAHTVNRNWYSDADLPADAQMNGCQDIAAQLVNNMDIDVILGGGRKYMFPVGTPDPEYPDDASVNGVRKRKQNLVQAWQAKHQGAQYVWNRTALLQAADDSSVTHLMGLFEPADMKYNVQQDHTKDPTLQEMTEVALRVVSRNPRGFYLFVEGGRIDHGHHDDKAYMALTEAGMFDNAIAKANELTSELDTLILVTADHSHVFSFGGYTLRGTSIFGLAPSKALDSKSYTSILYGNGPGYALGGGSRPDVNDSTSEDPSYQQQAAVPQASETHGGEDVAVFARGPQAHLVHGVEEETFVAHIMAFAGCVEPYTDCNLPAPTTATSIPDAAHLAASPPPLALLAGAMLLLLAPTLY

## Cc1cc(=O)oc2c(F)c(OP(=O)(O)O)c(F)cc12 [DiFMUP, 6,8-difluoro-4-methylumbelliferyl phosphate]
[1]; pH 6.5, 37 °C
  Hill coefficient: 1
  kcat: 37 s⁻¹
  Km: 0.2 ± 0.04 µM
  Vmax: 32 ± 2 µmol/min/mg
[1]; pH 7.0, 37 °C
  Hill coefficient: 1
  kcat: 82 s⁻¹
  Km: 0.5 ± 0.04 µM
  Vmax: 71 ± 3 µmol/min/mg
[1]; pH 7.5, 37 °C
  Hill coefficient: 1
  kcat: 147 s⁻¹
  Km: 1.4 ± 0.2 µM
  Vmax: 126 ± 3 µmol/min/mg
[1]; pH 8.0, 37 °C
  Hill coefficient: 1
  kcat: 211 s⁻¹
  Km: 2.8 ± 0.1 µM
  Vmax: 181 ± 1 µmol/min/mg

## [Na+].[Na+].[Na+].[O]=[V]([O-])([O-])[O-] [Na3VO4, sodium orthovanadate]
[1]; 0.025 μM DiFMUP, pH 6.5, 37 °C
  IC50: 1000 ± 400 nM
[1]; 0.050 μM DiFMUP, pH 6.5, 37 °C
  IC50: 1500 ± 400 nM
[1]; 0.100 μM DiFMUP, pH 6.5, 37 °C
  IC50: 1600 ± 300 nM
[1]; 0.200 μM DiFMUP, pH 6.5, 37 °C
  IC50: 2300 ± 400 nM
[1]; 0.400 μM DiFMUP, pH 6.5, 37 °C
  IC50: 4000 ± 400 nM
[1]; 0.800 μM DiFMUP, pH 6.5, 37 °C
  IC50: 6100 ± 900 nM
[1]; 1.600 μM DiFMUP, pH 6.5, 37 °C
  IC50: 11000 ± 3000 nM
[1]; IC50 rises with DiFMUP concentration, apparent KM but not Vmax rises
  mode of inhibition: competitive
[1]; Na3VO4 0.084 μM
  apparent AP Vmax: 567 ± 18 RFU min^−1
[1]; Na3VO4 0.250 μM
  apparent AP Vmax: 561 ± 35 RFU min^−1
[1]; Na3VO4 0.760 μM
  apparent AP Vmax: 566 ± 24 RFU min^−1
[1]; Na3VO4 2.28 μM
  apparent AP Vmax: 546 ± 32 RFU min^−1
[1]; Na3VO4 6.68 μM
  apparent AP Vmax: 513 ± 53 RFU min^−1
[2]
  reversibility of inhibition: rapidly reversible

## Triton X-100
[3]
  increase in AP activity: up to 40%

## Tween 20
[3]
  increase in AP activity: up to 40%

## C[C@H](CCC(=O)NCCC[N+](C)(C)CCCS(=O)(=O)[O-])[C@H]1CC[C@H]2[C@@H]3[C@H](O)C[C@@H]4C[C@H](O)CC[C@]4(C)[C@H]3C[C@H](O)[C@]12C [CHAPS]
[3]
  increase in AP activity: up to 40%

## C[S+](C)[O-] [DMSO]
[1]; DMSO concentrations up to 1.5%
  decrease in reaction velocity: less than 10%

Source: article PMC4822204 (Biomolecular Detection and Quantification, 2015)
